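In this assay, cells in 96-well plates receive the compound at five concentrations for 48 hours. Endpoints are linearly interpolated between the surrounding concentrations. Definition used: TGI = concentration required for complete inhibition of growth.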
Assays:
Assay in all cases: growth of human tumour cells (NCI), 48 h
NCI-H226 lung = test system: NCI-H226 lung
LOX IMVI melanoma = test system: LOX IMVI melanoma
K-562 leukemia = test system: K-562 leukemia
U251 CNS = test system: U251 CNS
OVCAR-4 ovarian = test system: OVCAR-4 ovarian
A498 renal = test system: A498 renal
HOP-62 NSCLC = test system: HOP-62 NSCLC
NCI-H23 lung = test system: NCI-H23 lung
TK-10 renal = test system: TK-10 renal
SW-620 colon = test system: SW-620 colon
RPMI-8226 leukemia = test system: RPMI-8226 leukemia
UACC-257 melanoma = test system: UACC-257 melanoma
CAKI-1 renal = test system: CAKI-1 renal
SF-295 CNS = test system: SF-295 CNS

SMILES | TGI (NCI-H226 lung) | TGI (LOX IMVI melanoma) | TGI (K-562 leukemia) | TGI (U251 CNS) | TGI (OVCAR-4 ovarian) | TGI (A498 renal) | TGI (HOP-62 NSCLC) | TGI (NCI-H23 lung) | TGI (TK-10 renal) | TGI (SW-620 colon) | TGI (RPMI-8226 leukemia) | TGI (UACC-257 melanoma) | TGI (CAKI-1 renal) | TGI (SF-295 CNS)
O=C1/C(=C\c2ccc(O)cc2)CCC/C1=C/c1ccc(Cl)c(Cl)c1 | 15.5 µM | 3.62 µM | 11.9 µM | 16 µM | 5.93 µM | 14.3 µM | 16.1 µM | 10.1 µM | 10.5 µM | 12 µM | 5.76 µM | 15.7 µM | 16.7 µM | 10.1 µM
COc1cc(O)c2c(=O)cc(-c3ccc(O)cc3O)oc2c1CC=C(C)C | 38 µM | 28.3 µM | > 100 µM | 38.2 µM | 28.5 µM | 66.4 µM |  | 32.5 µM | 74.3 µM | > 100 µM | > 100 µM | 86.6 µM | 32.5 µM | 30.2 µM
C/C(CC(=O)Nc1ccc([N+](=O)[O-])cc1)=N\NC(N)=O | > 100 µM | > 100 µM | > 100 µM | > 100 µM | > 100 µM | > 100 µM | > 100 µM | > 100 µM | > 100 µM | > 100 µM | > 69.5 µM | > 100 µM | > 100 µM | > 100 µM
CNC1=C(C)C(=O)C(=O)C([C@H](C)CCC=C(C)C)=C1O | > 72.9 µM | > 100 µM | > 100 µM | > 100 µM | > 77 µM | 62.3 µM | > 31.6 µM | > 100 µM | > 100 µM | > 100 µM | > 94.3 µM | > 100 µM | 56.7 µM | > 75.7 µM
O=C1/C(=C/c2ccccc2O)N=C(c2ccccc2)N1C1Nc2cc3c(cc2S1)NC(N1C(=O)/C(=C/c2ccccc2O)N=C1c1ccccc1)S3 (stereo not drawn) | > 100 µM | > 100 µM | > 100 µM | > 100 µM | > 100 µM | > 100 µM | > 100 µM | > 100 µM | > 100 µM | > 100 µM | > 100 µM | > 100 µM | > 100 µM | > 100 µM
CCc1c2c([nH]c(=S)c1C#N)CCC2 | > 100 µM | > 100 µM | > 100 µM | > 100 µM | > 100 µM | > 100 µM | > 100 µM | > 100 µM | > 100 µM | > 100 µM | > 100 µM | > 100 µM | > 100 µM | > 100 µM
O=[N+]([O-])/C(C(Cl)=C(Cl)Cl)=C(\N1CCOCC1)n1nnc2ccccc21 | 58.7 µM |  |  | 30.3 µM | 76.1 µM | 37.8 µM | 36.2 µM | 32.7 µM | 63.8 µM |  | > 100 µM | 50.7 µM | 31.6 µM | 34.9 µM
C/C(=N\NS(=O)(=O)c1ccc(C)cc1)C(CN1CCCCC1)C(c1ccccc1)c1c(O)c2ccccc2oc1=O (stereo not drawn) | > 100 µM | > 100 µM | > 100 µM | > 100 µM | > 100 µM | > 100 µM | > 100 µM | > 100 µM | > 100 µM | > 100 µM | > 100 µM | > 100 µM | > 100 µM | > 100 µM

Reference: PubChem BioAssay (NCI)
